Test results as given in ChEMBL document CHEMBL1125008 (J Med Chem, 1990).

Experiments:
[1] = target: T1, Serotonin 3 receptor (5HT3) (Mus musculus, UniProt Q9JHJ5+P23979); test: (§1) The binding affinity was measured for 5-hydroxytryptamine 3 receptor on NG 108-15 cell line of mouse neuroblastoma-glioma cells in presence of [3H]5 radioligand (in vitro); assay type: cell-based
T1 sequence (Q9JHJ5 whole entry): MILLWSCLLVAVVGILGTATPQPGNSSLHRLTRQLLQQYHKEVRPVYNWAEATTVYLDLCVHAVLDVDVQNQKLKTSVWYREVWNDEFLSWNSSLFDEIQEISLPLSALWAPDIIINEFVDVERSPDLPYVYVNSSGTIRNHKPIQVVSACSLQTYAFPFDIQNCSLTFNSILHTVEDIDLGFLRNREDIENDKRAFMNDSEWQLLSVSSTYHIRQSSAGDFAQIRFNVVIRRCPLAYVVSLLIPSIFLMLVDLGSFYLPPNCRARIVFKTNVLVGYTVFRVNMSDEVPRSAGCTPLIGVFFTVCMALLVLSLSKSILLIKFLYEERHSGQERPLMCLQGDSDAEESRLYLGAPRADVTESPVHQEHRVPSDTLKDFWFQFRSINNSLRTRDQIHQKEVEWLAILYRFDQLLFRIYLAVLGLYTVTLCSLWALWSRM
T1 sequence (P23979 whole entry): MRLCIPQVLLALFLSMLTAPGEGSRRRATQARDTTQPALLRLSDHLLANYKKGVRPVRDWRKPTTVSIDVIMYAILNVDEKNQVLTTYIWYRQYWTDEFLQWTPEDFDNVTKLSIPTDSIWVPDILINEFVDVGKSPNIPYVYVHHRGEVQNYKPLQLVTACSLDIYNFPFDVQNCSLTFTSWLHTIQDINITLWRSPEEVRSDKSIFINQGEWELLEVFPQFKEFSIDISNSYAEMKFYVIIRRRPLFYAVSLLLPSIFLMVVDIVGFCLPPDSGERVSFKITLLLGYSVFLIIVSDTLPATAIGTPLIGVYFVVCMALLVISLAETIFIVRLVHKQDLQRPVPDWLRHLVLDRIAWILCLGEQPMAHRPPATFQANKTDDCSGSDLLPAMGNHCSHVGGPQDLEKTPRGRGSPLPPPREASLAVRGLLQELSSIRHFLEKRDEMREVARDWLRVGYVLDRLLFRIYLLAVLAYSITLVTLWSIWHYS

[2] = target: T2, Serotonin 3 receptor (5HT3) (Mus musculus) (UniProt Q9JHJ5+P23979); test: as §1; assay type: cell-based; settings: concentration not given here
[3] = target: T2, Serotonin 3 receptor (5HT3) (Mus musculus); test: Percent inhibition of [3H]5 binding to 5-hydroxytryptamine 3 receptor was evaluated by injection of compound (75 microCi/kg, […]) into the tail vein of mice (in vivo); assay type: organism-based

Row | Compound | Ki [1] [nM] | inhibition [2] [%] | also measured
1 | CN1[C@@H]2CC[C@H]1C[C@@H](OC(=O)c1c[nH]c3ccccc13)C2 [TROPISETRON] | 3.8 |  | 
2 | Cc1[nH]cnc1Cc1nc(-c2ccccc2)cs1 |  | 53 | 
3 | COc1ccccc1-c1csc(Cc2[nH]cnc2C)n1 |  | 50 | 
4 | Cc1[nH]c2ccc(O)cc2c1CCN | 1430 |  | 
5 | Cc1nccn1CC1CCc2c(c3ccccc3n2C)C1=O (stereo not drawn) [ONDANSETRON] | 12 |  | 
6 | Cc1[nH]cnc1Cc1nc(-c2ccccc2F)cs1 |  | 66 | 
7 | Cc1[nH]cnc1Cc1nc(-c2cccc3cccnc23)cs1 |  |  | inhibition [3]: 54%
8 | c1ccc2nc(N3CCNCC3)ccc2c1 [QUIPAZINE] | 8.67 |  | 
